Measured values reported in PubChem BioAssay AID977605 (Broad Institute, 2014).
Active and inactive are the calls of the source.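 How the source made its calls: active means fitted curve reaches 40% activation below the top valid tested dose, in every test run; inconclusive means test runs disagree on the call; inactive means the rest, including effects opposite to the expected direction.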

Assay: endothelial E-selectin upregulation by compounds – imaging, HUVEC, cherry-picked samples, dose response (AID 977605);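 further: signal is the share of imaged cells scored positive for E-selectin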
Conditions: HUVEC E-selectin immunostaining, at 18 µM (top of the series), percent of TNF-alpha response over vehicle

Row | Structure (SMILES) | activation
1 | COc1ccc(NC(=O)N(C)C[C@H]2Oc3ccc(NC(=O)CCCCCC(=O)Nc4ccccc4N)cc3CC(=O)N([C@@H](C)CO)C[C@H]2C)cc1 | 0.745% (inactive)

Same assay, conditions: HUVEC E-selectin immunostaining, at 19.5 µM (top of the series), percent of TNF-alpha response over vehicle

Row | Structure (SMILES) | activation
2 | CCCCC1C(=O)N(c2ccccc2)N(c2ccc(O)cc2)C1=O (centres undefined) | -0.246% (inactive)
3 | C[C@@H]1CN([C@@H](C)CO)C(=O)Cc2cc(NS(=O)(=O)c3ccc(F)cc3)ccc2O[C@H]1CN(C)S(=O)(=O)c1ccc(Cl)cc1 | -0.127% (inactive)
4 | Cc1ccc(S(=O)(=O)N(C)C[C@H]2Oc3ccc(N(C)C)cc3C(=O)N([C@@H](C)CO)C[C@@H]2C)cc1 | 9.64% (inactive)
5 | Cc1noc(C)c1S(=O)(=O)Nc1ccc2c(c1)C(=O)N([C@H](C)CO)C[C@@H](C)[C@@H](CN(C)Cc1ccc3c(c1)OCO3)O2 | -0.086% (inactive)
6 | C[C@H](CO)N1C[C@H](C)[C@H](CN(C)S(=O)(=O)c2ccc(Cl)cc2)Oc2ccc(NC(=O)NC3CCCCC3)cc2C1=O | -0.048% (inactive)
7 | C[C@H](CO)N1C[C@H](C)[C@H](CN(C)Cc2ccc(Oc3ccccc3)cc2)Oc2ccc(NC(=O)CCCCCC(=O)Nc3ccccc3N)cc2CC1=O | 0.312% (inactive)
8 | C[C@@H]1CN([C@H](C)CO)C(=O)c2cc(NC(=O)Cc3cn(C)c4ccccc34)ccc2O[C@H]1CN(C)Cc1ccc(Cl)c(Cl)c1 | 4.38% (inactive)
9 | COc1ccccc1CC(Cc1nc2ccccc2[nH]1)c1nc2ccccc2[nH]1 (centres undefined) | 0.165% (inactive)
10 | COc1ccc(NC(=O)Nc2ccc3c(c2)C(=O)N([C@@H](C)CO)C[C@H](C)[C@@H](CN(C)C)O3)cc1 | 1.42% (inactive)
11 | C[C@H]1CN([C@@H](C)CO)C(=O)c2cccc(NC(=O)c3ccncc3)c2O[C@H]1CN(C)Cc1ccc(C(=O)Nc2ccccc2N)cc1 | 0.016% (inactive)
12 | CNC(=O)Oc1ccc2c(c1)[C@]1(C)CCN(C)C1N2C (some centres undefined) | -0.106% (inactive)
13 | CC(C)N(CCC#N)C(=O)Nc1ccc2c(c1)CCO2 | -0.194% (inactive)
14 | CC(C)NC(=O)Nc1cccc2c1O[C@@H](CN(C)Cc1ccc(C(F)(F)F)cc1)[C@H](C)CN([C@H](C)CO)C2=O | -0.054% (inactive)
15 | O=C(NC1CCCC1)C(c1ccc(F)cc1)N(C(=O)c1csnn1)c1ccccc1 (centres undefined) | 0.654% (inactive)
16 | CC1CCN(c2nc3c(=O)[nH]c(N)nc3n2[C@@H]2O[C@H](CO)[C@@H](O)[C@H]2O)CC1 | 0.131% (inactive)
17 | Cc1ccc(OCc2nc(-c3cccnc3)no2)cc1C | -0.108% (inactive)
18 | COc1ccc(-c2nc3cc(C)c(Br)c(C)n3c2CC(C)(C)C)cc1OC | 0.052% (inactive)
19 | C[C@@H]1CN([C@@H](C)CO)C(=O)c2cccc(NC(=O)Nc3ccccc3)c2O[C@H]1CN(C)S(=O)(=O)c1ccccc1 | 0.91% (inactive)
20 | O=C(CN(Cc1ccc(F)cc1)C(=O)CNS(=O)(=O)c1ccc(F)cc1)NCc1ccco1 | -0.246% (inactive)
21 | C[C@@H]1CN([C@H](C)CO)C(=O)c2cccc(NC(=O)Nc3ccccc3)c2O[C@@H]1CN(C)S(=O)(=O)c1ccccc1 | 0.268% (inactive)
22 | C[C@H]1CN([C@@H](C)CO)C(=O)c2cc(NC(=O)Cn3cnnn3)ccc2O[C@@H]1CN(C)Cc1ccc(Oc2ccccc2)cc1 | -0.201% (inactive)
23 | Cc1ccccc1CNc1ncnc2cc(Cl)ccc12 | 0.221% (inactive)
24 | C[C@@H]1CN([C@H](C)CO)C(=O)c2cccc(NC(=O)CCCCCC(=O)Nc3ccccc3N)c2O[C@@H]1CN(C)S(=O)(=O)c1cn(C)cn1 | -0.195% (inactive)
25 | C[C@@H]1CN([C@@H](C)CO)C(=O)c2cc(NC(=O)NC3CCCCC3)ccc2O[C@@H]1CN(C)S(=O)(=O)c1ccc(Cl)cc1 | -0.037% (inactive)
26 | COc1ccc(NC(=O)N(C)C[C@H]2Oc3ccc(NC(=O)c4ccncc4)cc3CC(=O)N([C@H](C)CO)C[C@@H]2C)cc1 | -0.048% (inactive)
27 | C[C@@H]1CN([C@H](C)CO)C(=O)c2cccc(NS(C)(=O)=O)c2O[C@H]1CN(C)Cc1ccncc1 | 1.77% (inactive)
28 | CCC(=O)c1ccc(OCC(=O)NNC(=O)c2cc(C)oc2C)cc1 | -0.03% (inactive)

Row | Structure (SMILES) | activation
29 | COCC(=O)N(C)C[C@@H]1Oc2cc(-c3ccc(F)cc3)ccc2S(=O)(=O)N([C@H](C)CO)C[C@H]1C | -0.159% (inactive)
30 | COc1ccc(CN(C)C[C@H]2Oc3c(NC(=O)c4cnccn4)cccc3C(=O)N([C@H](C)CO)C[C@@H]2C)cc1 | 0.248% (inactive)
31 | CCCCc1c(C)nc2ccc(C)cc2c1SCCC(=O)O | -0.168% (inactive)
32 | O=C(C1CCCN(c2nnc(-n3cccc3)s2)C1)N1CCN(c2ccccc2)CC1 (centres undefined) | 0.14% (inactive)
33 | C[C@H](CO)N1C[C@H](C)[C@H](CN(C)C(=O)NC2CCCCC2)Oc2ccc(NS(=O)(=O)c3ccccc3)cc2C1=O | -0.156% (inactive)
34 | C[C@H](CO)N1C[C@H](C)[C@H](CN(C)C(=O)Nc2cccc3ccccc23)Oc2ccc(NS(C)(=O)=O)cc2C1=O | 0.267% (inactive)
35 | COc1ccc(S(=O)(=O)N2CCOCC2)cc1C(=O)NCc1ccccc1CN1CCCC1 | 0.269% (inactive)
36 | CCn1c(CCC(=O)O)nc2cc(S(=O)(=O)N3CCOCC3)ccc21 | -0.184% (inactive)
37 | C=CCn1c(=N)n(CC(=O)c2ccc(Br)s2)c2ccccc21 | 1.81% (inactive)
38 | O=C(COC(=O)CCC(=O)c1ccc(F)cc1)Nc1cccc(S(=O)(=O)N2CCCC2)c1 | 2.61% (inactive)
39 | C[C@H]1CN([C@@H](C)CO)C(=O)Cc2cc(NS(=O)(=O)c3ccccc3)ccc2O[C@H]1CN(C)Cc1ccc(C(F)(F)F)cc1 | 10.6% (inactive)
40 | Cc1noc(C)c1NC(=O)Nc1ccc2c(c1)CC(=O)N([C@H](C)CO)C[C@@H](C)[C@H](CN(C)C(=O)Nc1ccc(F)cc1)O2 | -0.18% (inactive)
41 | O=C(NC1CCCC1)c1cc(-c2ccccc2O)on1 | 0.323% (inactive)
42 | CCOc1cnc(C(=O)NNC(=O)c2ccccc2Br)o1 | 0.602% (inactive)
43 | CN(C)c1cccc(C(=O)NCc2ccc3c(c2)OCO3)c1 | 8.26% (inactive)
44 | C[C@@H]1CN([C@H](C)CO)C(=O)c2cc(NC(=O)Cc3ccccc3)ccc2O[C@H]1CN(C)C(=O)NC1CCCCC1 | 0.096% (inactive)
45 | C[C@H](CO)N1C[C@H](C)[C@H](CN(C)Cc2ccc3c(c2)OCO3)Oc2ccc(NC(=O)Cc3cn(C)c4ccccc34)cc2C1=O | 0.14% (inactive)
46 | Cc1cc(C)cc(NC(=O)Cc2ccc(NC3=NC4CS(=O)(=O)CC4S3)cc2)c1 (centres undefined) | 0.105% (inactive)
47 | C[C@H]1CN([C@@H](C)CO)C(=O)c2cccc(NC(=O)c3ccc(-c4nccs4)cc3)c2O[C@@H]1CN(C)Cc1ccc(Cl)c(Cl)c1 | 4.07% (inactive)
48 | C[C@H]1CN([C@@H](C)CO)C(=O)c2cc(NC(=O)CCCN(C)C)ccc2O[C@H]1CN(C)Cc1ccc(C(F)(F)F)cc1 | -0.127% (inactive)
49 | C[C@@H]1CN([C@H](C)CO)C(=O)Cc2cc(NC(=O)Nc3ccc(F)cc3)ccc2O[C@H]1CN(C)S(=O)(=O)c1ccc(Cl)cc1 | 0.054% (inactive)
50 | COc1ccc(S(=O)(=O)N(C)C[C@@H]2Oc3ccc(NC(=O)c4ccncc4)cc3C(=O)N([C@H](C)CO)C[C@H]2C)cc1 | -0.082% (inactive)
51 | CC(C)NC(=O)N(C)C[C@H]1Oc2c(NC(=O)c3ccc(-c4nccs4)cc3)cccc2C(=O)N([C@@H](C)CO)C[C@H]1C | 2.24% (inactive)
52 | Cc1noc(C)c1NC(=O)Nc1ccc2c(c1)CC(=O)N([C@@H](C)CO)C[C@H](C)[C@@H](CN(C)S(=O)(=O)c1ccccc1)O2 | -0.1% (inactive)
53 | CN(CC(=O)Nc1ccc(Cl)c(Cl)c1)C1CCCCC1 | -0.064% (inactive)
54 | COc1ccc(NC(=O)c2cc(-c3cccs3)on2)c(OC)c1 | 1.59% (inactive)
55 | CN(CC(=O)Nc1ccc(Br)cc1)Cc1ccccc1 | 0.013% (inactive)

Same assay, conditions: HUVEC E-selectin immunostaining, at 21 µM (top of the series), percent of TNF-alpha response over vehicle

Row | Structure (SMILES) | activation
56 | C[C@H]1CN([C@@H](C)CO)C(=O)c2cccc(NC(=O)c3ccc(-c4nccs4)cc3)c2O[C@H]1CN(C)Cc1ccc(Oc2ccccc2)cc1 | 0.436% (inactive)
57 | C[C@@H]1CN([C@H](C)CO)C(=O)Cc2cc(NC(=O)Nc3ccc(F)cc3)ccc2O[C@@H]1CN(C)S(=O)(=O)c1cn(C)cn1 | -0.103% (inactive)
58 | COc1ccc(S(=O)(=O)Nc2cccc3c2O[C@H](CN(C)C(=O)Nc2c(C)noc2C)[C@@H](C)CN([C@@H](C)CO)C3=O)cc1 | -0.092% (inactive)
59 | COc1ccc(S(=O)(=O)N(C)C[C@H]2Oc3ccc(NC(=O)Nc4ccc5c(c4)OCO5)cc3CC(=O)N([C@@H](C)CO)C[C@H]2C)cc1 | 0.529% (inactive)
60 | CC(C)NC(=O)N(C)C[C@H]1Oc2ccc(NC(=O)CCN3CCOCC3)cc2C(=O)N([C@H](C)CO)C[C@@H]1C | 0.008% (inactive)
61 | C[C@@H]1CN([C@H](C)CO)C(=O)c2cccc(NC(=O)C3CC3)c2O[C@H]1CN(C)CC1CC1 | -0.061% (inactive)
62 | C[C@H](CO)N1C[C@H](C)[C@H](CN(C)C(=O)c2ccccc2)OCc2ccccc2-c2c(n(C)c3ccccc23)C1=O | -0.093% (inactive)
63 | C[C@@H]1CN([C@H](C)CO)C(=O)c2cccc(NC(=O)C3CCOCC3)c2O[C@H]1CN(C)C(=O)Nc1ccccc1 | -0.271% (inactive)
64 | Cc1noc(C)c1S(=O)(=O)Nc1ccc2c(c1)CC(=O)N([C@H](C)CO)C[C@H](C)[C@@H](CN(C)Cc1ccc(-c3ccccc3)cc1)O2 | -0.276% (inactive)
65 | COc1ccc(S(=O)(=O)Nc2ccc3c(c2)CC(=O)N([C@@H](C)CO)C[C@@H](C)[C@@H](CN(C)C(=O)NC2CCCCC2)O3)cc1 | -0.169% (inactive)
66 | C[C@H](CO)N1C[C@H](C)[C@H](CN(C)S(=O)(=O)c2ccc(Cl)cc2)Oc2ccc(NS(=O)(=O)c3ccc(F)cc3)cc2CC1=O | -0.115% (inactive)
67 | C[C@@H]1CN([C@H](C)CO)C(=O)Cc2cc(NC(=O)Cc3cn(C)c4ccccc34)ccc2O[C@H]1CN(C)Cc1ccc(C(F)(F)F)cc1 | 14% (inactive)
68 | CC(C)NC(=O)Nc1ccc2c(c1)CC(=O)N([C@H](C)CO)C[C@@H](C)[C@@H](CN(C)Cc1ccc(Cl)c(Cl)c1)O2 | 0.047% (inactive)
69 | C[C@@H]1CN([C@H](C)CO)C(=O)c2cc(NC(=O)Nc3ccc4c(c3)OCO4)ccc2O[C@H]1CN(C)S(=O)(=O)c1ccccc1 | -0.095% (inactive)
